Data: ChEMBL document CHEMBL3244148, “Agonist effects of beta-phenethylamines on the noradrenergic cyclic adenosine 3',5'-monophosphate generating system in rat limbic forebrain. Stereoisomers of p-hydroxynorephedrine” (J Med Chem, 1977)
Where a name gives a salt, the structure may show the parent alone. The source made the active and inactive calls. The calls are words filed in the database; no cut-off is given here.

What was measured:
Rattus norvegicus = species: Rattus norvegicus; test: Agonist activity at noradrenergic receptor in Sprague-Dawley rat limbic forebrain assessed as increase in c-AMP production up to 10^-4 M incubated for 10 mins; format: tissue-based; settings: Limbic system
[1] = Agonist activity at noradrenergic receptor in Sprague-Dawley rat limbic forebrain assessed as increase in c-AMP production incubated for 10 mins

| SMILES | Activity (Rattus norvegicus) | EC50 [1] |
| --- | --- | --- |
| C[C@H](N)Cc1ccc(O)cc1 | inactive | – |
| CNC[C@@H](O)c1ccc(O)c(O)c1 | – | > 100 µM |
| CC(N)C(O)c1ccc(O)c(O)c1 (racemic) [NORDEFRIN HYDROCHLORIDE] | – | 10 µM |
| CC(C)NC[C@H](O)c1ccc(O)c(O)c1 | – | 5 µM |
| NCCc1ccc(O)c(O)c1 | inactive | – |
| NCC(O)c1ccc(O)cc1 (racemic) | inactive | – |
| C[C@H](N)[C@H](O)c1ccc(O)cc1 | inactive | – |
| C[C@H](N)[C@@H](O)c1ccc(O)cc1 | inactive | – |
| CNC[C@H](O)c1ccc(O)c(O)c1 [EPINEPHRINE BITARTRATE] | – | 5 µM |
| C[C@H](N)Cc1ccccc1 | inactive | – |
| C[C@H](N)[C@H](O)c1cccc(O)c1 | inactive | – |
